Patent US5543415A, “Antidepressants” (Kyowa Hakko Kogyo Co., Ltd., priority 1992, dated 1996)

System: ddY-strain male mice
Assay: Acute Toxicity Test (minimum lethal dose, oral)
Type: in vivo
Details: seven days after administration
Experimental: Test compounds were orally administered to groups of ddY-strain male mice weighing 20±1 g, each group consisting of three mice. Seven days after the administration, minimum lethal dose (MLD) of each compound was determined by observing the mortality.

| Structure (SMILES) | MLD (minimum lethal dose) |
| --- | --- |
| COc1ccc(/C=C/c2nc3c(c(=O)n(C)c(=O)n3C)n2C)c(OC)c1OC [Compound 92, (E)-8-(2,3,4-Trimethoxystyryl)caffeine] | > 300 mg/kg |
| COc1ccc(/C=C/c2nc3c([nH]2)c(=O)n(C)c(=O)n3C)c(C)c1C [Compound 93, (E)-8-(4-Methoxy-2,3-dimethylstyryl)theophylline] | > 100 mg/kg |
| COc1ccc(/C=C/c2nc3c(c(=O)n(C)c(=O)n3C)n2C)c(C)c1C [Compound 94, (E)-8-(4-Methoxy-2,3-dimethylstyryl)caffeine] | > 100 mg/kg |
| Cn1c(=O)c2[nH]c(/C=C/c3ccc4c(c3)OCO4)nc2n(C)c1=O [Compound 95, (E)-8-(3,4-Methylenedioxystyryl)theophylline] | > 300 mg/kg |
| Cn1c(=O)c2c(nc(/C=C/c3ccc4c(c3)OCO4)n2C)n(C)c1=O [Compound 96, (E)-8-(3,4-Methylenedioxystyryl)caffeine] | > 300 mg/kg |
| COc1cccc(/C=C/c2nc3c(=O)n(C)c(=O)n(C)c3[nH]2)c1OC [Compound 97, (E)-8-(2,3-Dimethoxystyryl)theophylline] | > 100 mg/kg |
| COc1cccc(/C=C/c2nc3c(c(=O)n(C)c(=O)n3C)n2C)c1OC [Compound 98, (E)-8-(2,3-Dimethoxystyryl)caffeine] | > 300 mg/kg |
| COc1ccc(/C=C/c2nc3c([nH]2)c(=O)n(C)c(=O)n3C)c(OC)c1 [Compound 99, (E)-8-(2,4-Dimethoxystyryl)theophylline] | > 100 mg/kg |
| COc1ccc(/C=C/c2nc3c(c(=O)n(C)c(=O)n3C)n2C)c(OC)c1 [Compound 100, (E)-8-(2,4-Dimethoxystyryl)caffeine] | > 300 mg/kg |
| COc1cc(C)c(/C=C/c2nc3c([nH]2)c(=O)n(C)c(=O)n3C)cc1C [Compound 101, (E)-8-(4-Methoxy-2,5-dimethylstyryl)theophylline] | > 100 mg/kg |
| COc1cc(C)c(/C=C/c2nc3c(c(=O)n(C)c(=O)n3C)n2C)cc1C [Compound 102, (E)-8-(4-Methoxy-2,5-dimethylstyryl)caffeine] | > 100 mg/kg |
| COc1ccc(/C=C/c2nc3c([nH]2)c(=O)n(C)c(=O)n3C)c(OC)c1C [Compound 103, (E)-8-(2,4-Dimethoxy-3-methylstyryl)theophylline] | > 100 mg/kg |
| COc1ccc(/C=C/c2nc3c(c(=O)n(C)c(=O)n3C)n2C)c(OC)c1C [Compound 104, (E)-8-(2,4-Dimethoxy-3-methylstyryl)caffeine] | > 100 mg/kg |
| CCn1c(=O)c2[nH]c(/C=C/c3ccc(OC)c(OC)c3Cl)nc2n(CC)c1=O [Compound 105, (E)-8-(2-Chloro-3,4-dimethoxystyryl)-1,3-diethylxanthine] | > 100 mg/kg |
| CCn1c(=O)c2c(nc(/C=C/c3ccc(OC)c(OC)c3Cl)n2C)n(CC)c1=O [Compound 106, (E)-8-(2-Chloro-3,4-dimethoxystyryl)-1,3-diethyl-7-methylxanthine] | > 300 mg/kg |
| COc1ccc(/C=C/c2nc3c([nH]2)c(=O)n(C)c(=O)n3C)c(Cl)c1OC [Compound 107, (E)-8-(2-Chloro-3,4-dimethoxystyryl)theophylline] | > 100 mg/kg |
| COc1ccc(/C=C/c2nc3c(c(=O)n(C)c(=O)n3C)n2C)c(Cl)c1OC [Compound 108, (E)-8-(2-Chloro-3,4-dimethoxystyryl)caffeine] | > 300 mg/kg |
| CCn1c(=O)c2[nH]c(/C=C/c3cc(C)ccc3C)nc2n(CC)c1=O [Compound 109, (E)-8-(2,5-Dimethylstyryl)-1,3-diethylxanthine] | > 300 mg/kg |
| CCn1c(=O)c2c(nc(/C=C/c3cc(C)ccc3C)n2C)n(CC)c1=O [Compound 110, (E)-8-(2,5-Dimethylstyryl)-1,3-diethyl-7-methylxanthine] | > 300 mg/kg |
| CCn1c(=O)c2[nH]c(/C=C/c3ccc(F)c(F)c3)nc2n(CC)c1=O [Compound 111, (E)-8-(3,4-Difluorostyryl)-1,3-diethylxanthine] | > 300 mg/kg |
| CCn1c(=O)c2c(nc(/C=C/c3ccc(F)c(F)c3)n2C)n(CC)c1=O [Compound 112, (E)-8-(3,4-Difluorostyryl)-1,3-diethyl-7-methylxanthine] | > 300 mg/kg |
| CCn1c(=O)c2[nH]c(/C=C/c3ccc(OC)c(Br)c3)nc2n(CC)c1=O [Compound 113, (E)-8-(3-Bromo-4-methoxystyryl)-1,3-diethylxanthine] | > 100 mg/kg |
| COc1ccc(/C=C/c2nc3c([nH]2)c(=O)n(C)c(=O)n3C)cc1Br [Compound 115, (E)-8-(3-Bromo-4-methoxystyryl)theophylline] | > 100 mg/kg |
| COc1ccc(/C=C/c2nc3c(c(=O)n(C)c(=O)n3C)n2C)cc1Br [Compound 116, (E)-8-(3-Bromo-4-methoxystyryl)caffeine] | > 300 mg/kg |

| Structure (SMILES) | MLD (minimum lethal dose) |
| --- | --- |
| CCn1c(=O)c2[nH]c(/C=C/c3cc(OC)c(OC)cc3Br)nc2n(CC)c1=O [Compound 117, (E)-8-(2-Bromo-4,5-dimethoxystyryl)-1,3-diethylxanthine] | > 100 mg/kg |
| CCn1c(=O)c2c(nc(/C=C/c3cc(OC)c(OC)cc3Br)n2C)n(CC)c1=O [Compound 118, (E)-8-(2-Bromo-4,5-dimethoxystyryl)-1,3-diethyl-7-methylxanthine] | > 100 mg/kg |
| CCn1c(=O)c2[nH]c(/C=C/c3cc(OC)c(OC)cc3[N+](=O)[O-])nc2n(CC)c1=O [Compound 119, (E)-8-(4,5-Dimethoxy-2-nitrostyryl)-1,3-diethylxanthine] | > 100 mg/kg |
| CCn1c(=O)c2c(nc(/C=C/c3cc(OC)c(OC)cc3[N+](=O)[O-])n2C)n(CC)c1=O [Compound 120, (E)-8-(4,5-Dimethoxy-2-nitrostyryl)-1,3-diethyl-7-methylxanthine] | > 300 mg/kg |
| CCn1c(=O)c2[nH]c(/C=C/c3cccc(OC)c3[N+](=O)[O-])nc2n(CC)c1=O [Compound 121, (E)-1,3-Diethyl-8-(3-methoxy-2-nitrostyryl)xanthine] | > 300 mg/kg |
| CCn1c(=O)c2c(nc(/C=C/c3cccc(OC)c3[N+](=O)[O-])n2C)n(CC)c1=O [Compound 122, (E)-1,3-Diethyl-8-(3-methoxy-2-nitrostyryl)-7-methyl-xanthine] | > 100 mg/kg |
| CCOc1ccc(/C=C/c2nc3c([nH]2)c(=O)n(CC)c(=O)n3CC)cc1 [Compound 123, (E)-8-(4-Ethoxystyryl)-1,3-diethylxanthine] | > 100 mg/kg |
| CCCOc1ccc(/C=C/c2nc3c([nH]2)c(=O)n(CC)c(=O)n3CC)cc1 [Compound 125, (E)-1,3-Diethyl-8-(4-propoxystyryl)xanthine] | > 100 mg/kg |
| CCn1c(=O)c2[nH]c(/C=C/c3cccc(F)c3)nc2n(CC)c1=O [Compound 127, (E)-1,3-Diethyl-8-(3-fluorostyryl)xanthine] | > 100 mg/kg |
| CCn1c(=O)c2c(nc(/C=C/c3cccc(F)c3)n2C)n(CC)c1=O [Compound 128, (E)-1,3-Diethyl-8-(3-fluorostyryl)-7-methylxanthine] | > 300 mg/kg |
| CCn1c(=O)c2[nH]c(/C=C/c3cc(OC)cc(OC)c3)nc2n(CC)c1=O [Compound 129, (E)-8-(3,5-Dimethoxystyryl)-1,3-diethylxanthine] | > 100 mg/kg |
| CCn1c(=O)c2[nH]c(/C=C/c3cccc(Cl)c3)nc2n(CC)c1=O [Compound 131, (E)-8-(3-Chlorostyryl)-1,3-diethylxanthine] | > 100 mg/kg |
| CCn1c(=O)c2c(nc(/C=C/c3cccc(Cl)c3)n2C)n(CC)c1=O [Compound 132, (E)-8-(3-Chlorostyryl)-1,3-diethyl-7-methylxanthine] | > 300 mg/kg |
| CCn1c(=O)c2[nH]c(/C(C)=C/c3ccccc3)nc2n(CC)c1=O [Compound 133, (E)-1,3-Diethyl-8-(α-methylstyryl)xanthine] | > 100 mg/kg |
| CCn1c(=O)c2c(nc(/C(C)=C/c3ccccc3)n2C)n(CC)c1=O [Compound 134, (E)-1,3-Diethyl-7-methyl-8-(α-methylstyryl)xanthine] | > 300 mg/kg |
| CCn1c(=O)c2[nH]c(/C=C/c3ccc(C(F)(F)F)cc3)nc2n(CC)c1=O [Compound 135, (E)-1,3-Diethyl-8-(4-trifluoromethylstyryl)xanthine] | > 100 mg/kg |
| CCn1c(=O)c2c(nc(/C=C/c3ccc(C(F)(F)F)cc3)n2C)n(CC)c1=O [Compound 136, (E)-1,3-Diethyl-7-methyl-8-(4-trifluoromethylstyryl)xanthine] | > 300 mg/kg |
| CCn1c(=O)c2[nH]c(/C=C/c3cccc(OC)c3)nc2n(CC)c1=O [Compound 139, (E)-1,3-Diethyl-8-(3-methoxystyryl)xanthine] | > 100 mg/kg |
| CCn1c(=O)c2c(nc(/C=C/c3cccc(OC)c3)n2C)n(CC)c1=O [Compound 140, (E)-1,3-Diethyl-8-(3-methoxystyryl)-7-methylxanthine] | > 300 mg/kg |
| CCn1c(=O)c2[nH]c(/C=C/c3ccc(Br)cc3)nc2n(CC)c1=O [Compound 141, (E)-8-(4-Bromostyryl)-1,3-diethylxanthine] | > 100 mg/kg |
| CCn1c(=O)c2c(nc(/C=C/c3ccc(Br)cc3)n2C)n(CC)c1=O [Compound 142, (E)-8-(4-Bromostyryl)-1,3-diethyl-7-methylxanthine] | > 100 mg/kg |
| CCn1c(=O)c2[nH]c(/C=C/c3cccc(OC(F)(F)F)c3)nc2n(CC)c1=O [Compound 143, (E)-1,3-Diethyl-8-(3-trifluoromethoxystyryl)xanthine] | > 100 mg/kg |
| CCn1c(=O)c2c(nc(/C=C/c3cccc(OC(F)(F)F)c3)n2C)n(CC)c1=O [Compound 144, (E)-1,3-Diethyl-7-methyl-8-(3-trifluoromethoxystyryl)xanthine] | > 100 mg/kg |
